Consider three molecules from US11628220B2, “Pharmaceutical composition and methods of uses” (Foresee Pharmaceuticals Co., Ltd., priority 2016, dated 2023).

In brackets after ≈: the same amount, converted by molar mass. Like-named read-outs stand apart in the source and are kept apart here.

This data set in a line: Aqueous solubility in different cyclodextrin solutions (excess compound, shaken 24 hours, HPLC). As to conditions: aqueous cyclodextrin solution, thermodynamic from solid, room temperature, read-out: Solubility in CD's solution (concentration of compound). The class given is physicochemical. As to the method: In order to test the effect of various CDs on the aqueous solubility of compound IVE, 1 mL of each of the following aqueous solutions as described in Table 2 was prepared. […] Excess IVE was present in all samples at all times to obtain solubility. After 24-hours, the samples were centrifuged. […] The size of the compound may allow it to form an inclusion complex, resulting in a higher aqueous solubility.
In order to test the effect of various CDs on the aqueous solubility of compound IVP, 1 mL of each of the following aqueous solutions as described in Table 3 was prepared. […] Excess IVP was present in all samples at all times. After 24-hours, the samples were centrifuged. […] The size of the compound may allow it to form an inclusion complex, resulting in a higher aqueous solubility.
In order to test the effect of various CDs on the aqueous solubility of compound IVO, 1 mL of each of the following aqueous solutions as described in Table 4 was prepared. […] Excess IVO was present in all samples at all times. After 24-hours, the samples were centrifuged. […] The size of the compound may allow it to form an inclusion body complex, resulting in a higher aqueous solubility.
In order to test the effect of various CDs on the aqueous solubility of compound IVQ, 1 mL of each of the following aqueous solutions as described in Table 5 was prepared. […] Excess IVQ was present in all samples at all times. After 24-hours, the samples were centrifuged. […] The size of the compound may allow it to form an inclusion body complex, resulting in a higher aqueous solubility.

[1] abbreviates: aqueous with cosolvent or surfactant or cyclodextrin, ACD 40 mg/ml.
[2] abbreviates: aqueous with cosolvent or surfactant or cyclodextrin, HPBCD 100 mg/ml.
[3] abbreviates: aqueous with cosolvent or surfactant or cyclodextrin, HPGCD 100 mg/ml.
Setting [4] is: aqueous with cosolvent or surfactant or cyclodextrin, MBCD 100 mg/ml.
The mark [5] stands for this setting: aqueous with cosolvent or surfactant or cyclodextrin, SBEBCD 100 mg/ml.

On to `Cc1ccccc1COc1ccc(Sc2ccoc2C2NC(=O)NC2=O)cc1` (centres unmarked) [IVP, 5-{3-[4-(2-Methyl-benzyloxy)phenylthio]fur-2-yl}imidazolidine-2,4-dione], for which the solubility at 24 h by setting is: under setting [1], 15 µg/mL (≈ 38 µM); under setting [2], 727 µg/mL (≈ 1840 µM); under setting [3], 1 µg/mL (≈ 2.54 µM); under setting [4], 6270 µg/mL (≈ 15900 µM); under setting [5], 805 µg/mL (≈ 2040 µM); (water, ACD 0 mg/ml) 64 µg/mL (≈ 162 µM). The solubility at 24 h (water, HPBCD 0 mg/ml) is 64 µg/mL (≈ 162 µM); the solubility at 24 h (water, HPGCD 0 mg/ml) was determined as 64 µg/mL (≈ 162 µM); the solubility at 24 h (water, MBCD 0 mg/ml) was 64 µg/mL (≈ 162 µM); the solubility at 24 h (water, SBEBCD 0 mg/ml) was 64 µg/mL (≈ 162 µM).
Consider `O=C1NC(=O)C(c2occc2Sc2ccc(OCc3cccc(C(F)(F)F)c3)cc2)N1` (centres unmarked) [IVQ, 5-{3-[4-(3-Trifluoromethyl-benzyloxy)phenylthio]fur-2-yl}imidazolidine-2,4-dione], for which the solubility at 24 h is 111 µg/mL (≈ 248 µM) under setting [1]; 1220 µg/mL (≈ 2710 µM) under setting [2]; 5780 µg/mL (≈ 12900 µM) under setting [4]; 641 µg/mL (≈ 1430 µM) under setting [5]; 138 µg/mL (≈ 308 µM) (water, ACD 0 mg/ml); 138 µg/mL (≈ 308 µM) (water, HPBCD 0 mg/ml). Besides, the solubility at 24 h reads like this: (water, HPGCD 0 mg/ml) 138 µg/mL (≈ 308 µM); (water, MBCD 0 mg/ml) 138 µg/mL (≈ 308 µM); (water, SBEBCD 0 mg/ml) 138 µg/mL (≈ 308 µM).
In the case of `COc1cccc(COc2ccc(Sc3ccoc3C3NC(=O)NC3=O)cc2)c1` (centres unmarked) [IVE, 5-{3-[4-(3-Methoxybenzyloxy)phenylthio]fur-2-yl}imidazolidine-2,4-dione], the solubility at 24 h under setting [1] is 53 µg/mL (≈ 129 µM); the solubility at 24 h under setting [2] was 744 µg/mL (≈ 1810 µM); the solubility at 24 h under setting [3] was found to be 59 µg/mL (≈ 144 µM); the solubility at 24 h under setting [4] is 3250 µg/mL (≈ 7920 µM); the solubility at 24 h under setting [5] is 815 µg/mL (≈ 1990 µM); the solubility at 24 h (water, ACD 0 mg/ml) was found to be 23 µg/mL (≈ 56 µM). The solubility at 24 h by setting is: (water, HPBCD 0 mg/ml) 23 µg/mL (≈ 56 µM); (water, HPGCD 0 mg/ml) 23 µg/mL (≈ 56 µM); (water, MBCD 0 mg/ml) 23 µg/mL (≈ 56 µM); (water, SBEBCD 0 mg/ml) 23 µg/mL (≈ 56 µM).
